“Also recorded” adds a separate entry of the source.
How the values were obtained:
[1] = tested on: ELA processing and secretion; test: Xenopus secretion assay; type: cell-based; details: Xenopus laevis embryos injected with human ELA mRNA; increasing amounts
Description: ZFNs were purchased from Sigma-Aldrich. 250 pg of mRNAs encoding the ZFN pair were injected into 1-cell stage embryos. ZFN binding sites within exon 1 are as follows: 5′_[…] 3′ (SEQ ID NO: 133) and 5′_[…]_3′ (SEQ ID NO: 134). Sequencing primers flanking the mutation sites are: forward 5′_[…]_3′ (SEQ ID NO: 135), reverse 5′[…]_3′ (SEQ ID NO: 136). For ela overexpression, 200 pg of SP6-transcribed zebrafish ela capped mRNA (Applied Biosystems) was injected into 1-cell stage zebrafish embryos. Translation blocking MOs used for aplnra and aplnrb have been described previously (Scott et al., 2007; Zeng et al., 2007) and were purchased from Gene tools (Oregon, USA). Embryos were injected at 1-cell stage with a combination of 1 ng of aplnra MO and 0.5 ng of aplnrb MO (Zeng et al., 2007). Information on probes used for q-PCR and WISH can be found in Tables E1 and E2. Zebrafish embryos at 100% epiboly were dechorionated and processed for western blotting as previously described (Link et al., 2006). For the Xenopus secretion assay, 16 ng of SP6-transcribed human ELA capped mRNA (Applied Biosystems) was injected into each cell of 4-cell stage embryos. At stage 8, embryos were dechorionated and dissociated in CMFM medium with 5 mM EDTA. […]

hESCs [2] = test: Teratoma analysis; type: in vivo; details: 10 million cells subcutaneously into SCID mice, day 60
Description: Shef4TetR5-shELA cells were cultured in the presence (shELA) or absence (Control) of 20 ng/ml doxycycline for 3 passages (4 days/passage). Cells were harvested with Accutase (Stemcell Technologies) and resuspended in 1 part Matrigel to 2 parts mTSER1. 10 million cells in 200 μl were injected subcutaneously into the right hind paunches of SCID mice. shELA-injected mice were fed doxycycline (20 μg/ml) for 3 weeks following injection. Mice were sacrificed 60 days post-injection for tumor analysis.

[3] = tested on: pluripotency markers POU5F1, NANOG, SSEA3 and TRA-1-60; test: Pluripotency markers in ELA-depleted hESCs (immunofluorescence, qPCR); type: cell-based, human; details: prolonged ELA depletion in hESCs
Description: […]. Neomycin-resistant cells were clonally expanded and assayed for doxycycline (20 ng/ml)-inducible knockdown. Data from one representative clone (Shef4TetR5 shELA) are shown in this paper. Shef4TetR5 shβ2M were derived as previously described (Zafarana et al., 2009). Unless otherwise stated, ELA knockdown was induced on Day −4 with 20 ng/ml doxycycline to generate shELA cells.
Polyclonal antibodies were raised against a human N-terminal epitope (nh2-[…]) (SEQ ID NO: 53), C-terminal epitope ([…]-cooh) (SEQ ID NO: 52) or whole mature ELABELA peptide with an intramolecular cysteine bond (nh2-[…]-cooh) (SEQ ID NO: 2) and peptide-affinity purified from rabbit and goat sera. […] For western blotting and immunofluoresence assays, ELA antibodies were used at 1 μg/mL. All other antibodies are commercially available: TGN-46 (Serotec # AHP500GT); SSEA-3 (Stem Cell Tech #60061AD); TRA-1-60 (BD #560173); SOX17 (R&D # AF1924); POU5F1 (SCBT #sc-5279).

[4] = tested on: mesendodermal genes including GATA6, GATA4, FOXA2, EOMES and BRA; test: qPCR of mesendodermal markers in hESCs; type: cell-based, human
Description: After the indicated time periods, embryoid bodies were harvested and RNA extracted using RNeasy kit […]. qPCR reactions were carried out using either Universal FastStart SYBR Green Mastermix (Roche) or using the Universal Probe Library system (Roche) in tandem with Taqman Fast Mastermix (Invitrogen). Primer sequences can be found in Table E1.

hESCs [5] = test: Cell cycle studies (EDU staining, double thymidine block); type: cell-based, human; details: release from double thymidine block
Description: (§1) Recombinant ELA was added at 2.5 uM (or 10 μg/ml). Cell cycle studies were performed with Click-iT EDU staining kit (Invitrogen) and by performing a double thymidine block (2.5 mM thymidine; 16 hour block, 8 hour release, 16 hour block) followed by DAPI staining for DNA content at the indicated times following release.

hESCs [6] = test: Apoptosis assay (Annexin V, activated Caspase 3); type: cell-based, human
Description: Apoptosis assays were performed by plating control and Doxycycline-treated cells without Y-27632 onto matrigel for 6 hours, followed by harvesting and staining for Annexin V and activated Caspase 3.

hESCs [7] = test: Directed endoderm differentiation of hESCs (SOX17+ cell count); type: cell-based, human; details: immunofluorescence
Description: Shef4TetR5-shELA and Shef4TetR5-shβ2M cells were cultured in the presence (shELA and shβ2M respectively) or absence (Control) of 20 ng/ml doxycycline for 1 passage (4 days) and dissociated with Accutase. […] 24 hours later, the media was changed to Endo differentiation media 1 [RPMI 1640 (Gibco), 1X B-27 supplement (Invitrogen), 50 ng/ml of Activin A (R&D Systems), 25 ng/ml BMP4 (R&D Systems) and 50 ng/ml bFGF (Invitrogen)] for 3 days. On day 3, the media was changed to Endo differentiation media 2 (RPMI 1640, B27, 50 ng/ml Activin) for 2 more days of culture. Rescue experiments were performed by adding 2.5 uM of ELA peptide to Shef4TetR5-shELA concurrently with doxycycline up to day 3, when the ELA peptide is no longer necessary as judged by downregulation of endogenous ELA.
On day 5, cells were fixed with 4% paraformaldehyde and stained with α SOX17 (AF1924, R&D Systems) and DAPI. For each well, three different randomly selected fields were imaged and the number of nuclei staining positive of SOX17 and DAPI were counted using a custom macro in ImageJ. A minimum of two wells per condition was used for each experiment, and a minimum of two independent experiments were performed to generate the results.

hESCs [8] = test: hESC growth assays (cell counts, colony size, xCELLigence real time cell index); type: cell-based, human; details: for growth of knockdown hESCs (real-time cell index, xCELLigence): knockdown hESCs versus control hESCs
Description: Feeder-free hESCs were cultured in clumps in mTSER1 (Stem Cell Technologies) on Matrigel (BD 354277).
hESCs were dissociated into single cells using Accutase (Stem Cell Technologies) and plated in the presence of 10 μM Y-27632 (ROCK inhibitor) for 12 hours (Watanabe et al., 2007).
For xCELLigence real time growth assays, 4000 cells were plated per well of an E-plate (ACEA Biosciences) with media changes every 48 hours.
as §1

[9] = tested on: hESC-derived mesendoderm cells; test: AP-ELA binding to Day 3 mesoendoderm cells after shRNA-mediated depletion of APLNR
Description: (§2) HES3 human embryonic stem cells were transduced with 2TU of lentiviruses and selected with 2 ug/ml puromycin for 2 weeks on feeder free culture system.
Briefly, Shef4 and HES3 hESCs were dissociated with Accutase, and 0.14 million cells were plated into each well of a Matrigel-coated 24 well plate in the presence of 5 μM Y-27632 in mTSER1. The media was changed daily for 4 days with mTSER1 until the cells became 90% confluent. On Day 0, mTSER1 was then replaced with differentiation media [RPMI 1640, B-27 supplement with no insulin (Invitrogen)] with 9 μM of GSK3β inhibitor CHIR99201 (BioVision) for 24 hours. The cells were further grown for 2 days in RPMI+B27 without insulin until Day 3, when they were used for qPCR, flow cytometry and AP-binding assays.

APLNR = APLNR knockdown (qPCR, flow cytometry); details: FACs
Description: as §2
To obtain hESC-derived cells that express APLNR, we adopted a protocol for cardiac differentiation, which was stopped at Day 3 when APLNR expression peaks (Lian et al., 2013). We refer to this intermediary cell type as Day 3-differentiated mesoendoderm. Briefly, Shef4 and HES3 hESCs were dissociated with Accutase, and 0.14 million cells were plated into each well of a Matrigel-coated 24 well plate in the presence of 5 μM Y-27632 in mTSER1. The media was changed daily for 4 days with mTSER1 until the cells became 90% confluent. On Day 0, mTSER1 was then replaced with differentiation media [RPMI 1640, B-27 supplement with no insulin (Invitrogen)] with 9 μM of GSK3β inhibitor CHIR99201 (BioVision) for 24 hours. The cells were further grown for 2 days in RPMI+B27 without insulin until Day 3, when they were used for qPCR, flow cytometry and AP-binding assays.
Cells were resuspended to 2.5 million/ml and stained with 5 μg/ml of a APLNR (mAB856, R&D Systems) in PBS/5% FBS/1 mM EDTA for 30 minutes on ice, followed by wash in buffer, and stain with a mouse-IgG-Alexa Fluo488 (Molecular Probes) for 30 minutes on ice. Flow cytometry was carried out on LSRII (Becton Dickinson) and data analysis was performed with FlowJo (Treestar Inc.).

undifferentiated hESCs = test: AP-ELA binding to undifferentiated hESCs after shRNA-mediated depletion of APLNR; details: Day 0 undifferentiated hESCs
Description: as §2

| Compound | ELA processing and secretion [1] | teratoma / tumor formation (hESCs [2]) | pluripotency markers and colony morphology [3] | expression of mesendodermal markers [4] | cell cycle progression (hESCs [5]) | apoptosis (hESCs [6]; FACs, ANNEXIN V and activated CASPASE 3, single cells) | increase in the number of ANNEXIN V and activated CASPASE 3-positive cells (hESCs [6]; compared to control hESCs) | directed endoderm differentiation (SOX17 expression) (hESCs [7]) | growth of hESCs by cell numbers (hESCs [8]; FIG. 3C, relative to untreated hESCs) | growth of hESCs relative to untreated cells (hESCs [8]; hESCs pulsed with peptide, documented by cell counts, colony size and real-time cell indices) | colony size (hESCs [8]; knockdown hESC colonies versus control) | growth of knockdown hESCs (real-time cell index, xCELLigence) (hESCs [8]) | levels of AP-ELA bound after APLNR depletion [9] | cell surface APLNR levels (APLNR; Day 0 undifferentiated hESCs) | cell surface APLNR levels (APLNR; Day 3 mesoendoderm cells) | levels of AP-ELA bound after APLNR depletion (undifferentiated hESCs) |
| --- | --- | --- | --- | --- | --- | --- | --- | --- | --- | --- | --- | --- | --- | --- | --- | --- |
| C[C@H]1CCC/C=C/[C@@H]2C[C@H](O)C[C@H]2[C@H](O)/C=C/C(=O)O1 [Brefeldin A] | able to block ELA processing and secretion; also recorded: blocks ELA processing |  |  |  |  |  |  |  |  |  |  |  |  |  |  |  |
| shELA: doxycycline-inducible shRNA, sequence GTGATTCTCGTGCCTCAAC targeting the 3′UTR of ELA, in Shef4TetR5 hESCs |  | did not form teratomas | downregulation of pluripotency markers; also recorded: lose expression of pluripotency markers; also recorded: gradually differentiate and lose pluripotency markers | reduced levels; also recorded: conversely downregulated | not due to the activation of G1/S checkpoint or lengthened G0 residence; also recorded: do not display overt changes in cell cycle progression | significantly higher rate; also recorded: rapid apoptosis | approximately 40% | impaired endoderm differentiation; also recorded: markedly impaired | reduced growth | reduced growth | less than half the size; also recorded: twice as small | markedly reduced growth rates; also recorded: significant growth impairment |  |  |  |  |
| shAPLNR: lentiviral shRNA hairpins against APLNR (constructs shAPLNR-1 and shAPLNR-2) (guide 1 ACACGTACCGGGACTATGA; guide 2 CCATCATGCTGACCTGTTA) |  |  |  |  |  |  |  |  |  |  |  | not compromised; also recorded: do not show impaired growth | sufficient to significantly diminish the levels of AP-ELA; also recorded: significantly reduced AP-ELA binding | No changes | significantly reduced cell surface APLNR levels | could not reduce binding of AP-ELA; also recorded: does not affect |
